In patent US20220370418A1, “PHARMACEUTICAL COMBINATIONS COMPRISING A FURAZANOBENZIMIDAZOLES AND A CD40 AGONIST FOR USE IN THE TREATMENT OF NEOPLASTIC DISEASES” (Basilea Pharmaceutica International AG, priority 2019, published 2022):

Key:
SB28 glioma [1] = assay: Survival in syngeneic orthotopic SB28 glioma mouse model; type: in vivo, C57BL/6 mice
SB28 glioma [2] = assay: Survival in syngeneic orthotopic SB28 glioma model in T- and B-cell deficient RAG1 knockout mice; type: in vivo, C57BL/6 RAG1 knockout mice
GL261 glioma = assay: Survival in syngeneic orthotopic highly invasive GL261 glioma mouse model; type: in vivo, C57BL/6 mice
[3] = cited from earlier work
[4] = twenty-nine patients, doses from 0.01 to 0.3 mg/kg; cited from earlier work
[5] = Log-rank (Mantel-Cox) analysis, n=8-10 mice per group

N#CCCNc1nonc1-c1nc2ccccc2n1CC(=O)c1ccc(NC(=O)[C@@H](N)CCCCN)cc1 [BAL101553, (S)-2,6-Diamino-hexanoic acid [4-(2-{2-[4-(2-cyano-ethylamino)-furazan-3-yl]-benzoimidazol-1-yl}-acetyl)-phenyl]-amide]
survival of SB28 glioma bearing mice (in words, FIG. 1) (SB28 glioma [1]; [5]): statistically significant but smaller survival benefit than the combined regimen
median survival increase versus control (SB28 glioma [1]; SB28 intra-cranial, C57BL/6 mice, BAL101553 25 mg/kg orally daily day 5-9, 12-16, 19-23, 26-30, anti-CD40 antibody 100 μg per animal IP days 7, 12, 16): 55%
median survival increase, less than in the combination regimen (SB28 glioma [1]; single agent versus combination, SB28, C57BL/6 mice): 26%
survival of SB28 glioma bearing immunodeficient (RAG1 KO) mice (in words, FIG. 2) (SB28 glioma [2]; [5]): statistically significant, but smaller survival benefit than the combined regimen
median survival increase versus control (SB28 glioma [2]; SB28 intra-cranial, RAG1 KO mice, same treatment schedule as Example 1): 33%
median survival increase, less than measured in the combination regimen (SB28 glioma [2]; single agent versus combination, SB28, RAG1 KO mice): 23%
median survival increase versus control (GL261 glioma; GL261 intra-cranial, C57BL/6 mice, same treatment schedule as Examples 1 and 2): 18%
survival of GL261 glioma bearing mice (in words, FIG. 3) (GL261 glioma; Log-rank (Mantel-Cox) analysis, n=10 mice per group): do not show any significant prolongation of survival
median survival increase, less than measured in the combination regimen (GL261 glioma; single agent versus combination, GL261, C57BL/6 mice): 25%
water solubility (in words) [3]: highly water-soluble

CP-870,893: fully human IgG2 agonistic CD40 antibody developed by Pfizer
maximum tolerated dose (MTD) [4]: 0.2 mg/kg
